{"source": "patent US11807835B2", "about": "“Detergent compositions containing a stabilized enzyme by phosphonates” (ECOLAB USA INC., priority 2016, dated 2023)", "test_system": "lipase", "assay": "Lipase activity retention in detergent use solution (4000 ppm, 5 GPG water; p-nitrophenyl valerate, TRIS buffer pH 8.0)", "format": "biochemical", "settings": "for Relative Lipase Enzyme Activity in a Use Solution of the All Ash Detergent Composition: Table 6F, 120º F.; for Relative Lipase Enzyme Activity: base formula", "summary_of_the_method": "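Lipase stability was measured in a detergent use solution under conditions mimicking presoak or manual warewash, with stirring in a water bath. Aliquots were taken over time and flash-frozen. Thawed samples were diluted in TRIS buffer at pH 8.0 and assayed with p-nitrophenyl valerate as substrate on a plate reader. Activity is reported as % retained relative to the time=0 sample.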", "data": [{"substance": "Diglycolamine phosphonate [DGAP]", "values": [{"measurement": "Relative Lipase Enzyme Activity in a Use Solution of the All Ash Detergent Composition", "setting": "all ash formula, phosphonate 0.3 wt-%, time 0 min", "value": 100.00, "unit": "%"}, {"measurement": "Relative Lipase Enzyme Activity in a Use Solution of the All Ash Detergent Composition", "setting": "all ash formula, phosphonate 0.3 wt-%, time 5 min", "value": 87.31, "unit": "%"}, {"measurement": "Relative Lipase Enzyme Activity in a Use Solution of the All Ash Detergent Composition", "setting": "all ash formula, phosphonate 0.3 wt-%, time 10 min", "value": 76.38, "unit": "%"}, {"measurement": "Relative Lipase Enzyme Activity in a Use Solution of the All Ash Detergent Composition", "setting": "all ash formula, phosphonate 0.3 wt-%, time 20 min", "value": 57.74, "unit": "%"}, {"measurement": "Relative Lipase Enzyme Activity in a Use Solution of the All Ash Detergent Composition", "setting": "all ash formula, phosphonate 0.3 wt-%, time 40 min", "value": 40.00, "unit": "%"}, {"measurement": "Relative Lipase Enzyme Activity in a Use Solution of the All Ash Detergent Composition", "setting": "all ash formula, phosphonate 0.3 wt-%, time 60 min", "value": 33.56, "unit": "%"}, {"measurement": "Relative Lipase Enzyme Activity in a Use Solution of the All Ash Detergent Composition", "setting": "all ash formula, phosphonate 0.3 wt-%, time 90 min", "value": 25.59, "unit": "%"}, {"measurement": "Relative Lipase Enzyme Activity in a Use Solution of the All Ash Detergent Composition", "setting": "all ash formula, phosphonate 0.3 wt-%, time 120 min", "value": 21.03, "unit": "%"}, {"measurement": "Relative Lipase Enzyme Activity in a Use Solution of the All Ash Detergent Composition", "setting": "all ash formula, phosphonate 0.3 wt-%, time 150 min", "value": 17.27, "unit": "%"}, {"measurement": "Relative Lipase Enzyme Activity in a Use Solution of the All Ash Detergent Composition", "setting": "all ash formula, phosphonate 0.3 wt-%, time 180 min", "value": 14.06, "unit": "%"}, {"measurement": "Relative Lipase Enzyme Activity in a Use Solution of the All Ash Detergent Composition", "setting": "all ash formula, phosphonate 0.3 wt-%, time 210 min", "value": 12.18, "unit": "%"}, {"measurement": "Relative Lipase Enzyme Activity in a Use Solution of the All Ash Detergent Composition", "setting": "all ash formula, phosphonate 0.3 wt-%, time 240 min", "value": 10.79, "unit": "%"}, {"measurement": "lipase stability in all ash formula", "setting": "all ash formula, versus same composition with PBTC or HEDP without amine(s), FIG. 6G", "value": "more stable"}, {"measurement": "Relative Lipase Enzyme Activity", "setting": "phosphonate 0.3 wt-%, use solution at 120° F., time 0 min", "value": 100.00, "unit": "%"}, {"measurement": "Relative Lipase Enzyme Activity", "setting": "phosphonate 0.3 wt-%, use solution at 120° F., time 5 min", "value": 83.54, "unit": "%"}, {"measurement": "Relative Lipase Enzyme Activity", "setting": "phosphonate 0.3 wt-%, use solution at 120° F., time 10 min", "value": 88.25, "unit": "%"}, {"measurement": "Relative Lipase Enzyme Activity", "setting": "phosphonate 0.3 wt-%, use solution at 120° F., time 20 min", "value": 77.15, "unit": "%"}, {"measurement": "Relative Lipase Enzyme Activity", "setting": "phosphonate 0.3 wt-%, use solution at 120° F., time 40 min", "value": 62.99, "unit": "%"}, {"measurement": "Relative Lipase Enzyme Activity", "setting": "phosphonate 0.3 wt-%, use solution at 120° F., time 60 min", "value": 52.84, "unit": "%"}, {"measurement": "Relative Lipase Enzyme Activity", "setting": "phosphonate 0.3 wt-%, use solution at 120° F., time 90 min", "value": 43.46, "unit": "%"}, {"measurement": "Relative Lipase Enzyme Activity", "setting": "phosphonate 0.3 wt-%, use solution at 120° F., time 120 min", "value": 35.40, "unit": "%"}, {"measurement": "Relative Lipase Enzyme Activity", "setting": "phosphonate 0.3 wt-%, use solution at 120° F., time 150 min", "value": 31.10, "unit": "%"}, {"measurement": "Relative Lipase Enzyme Activity", "setting": "phosphonate 0.3 wt-%, use solution at 120° F., time 180 min", "value": 22.42, "unit": "%"}, {"measurement": "Relative Lipase Enzyme Activity", "setting": "phosphonate 0.3 wt-%, use solution at 120° F., time 210 min", "value": 24.78, "unit": "%"}, {"measurement": "Relative Lipase Enzyme Activity", "setting": "phosphonate 0.3 wt-%, use solution at 120° F., time 240 min", "value": 22.08, "unit": "%"}, {"measurement": "Relative Lipase Enzyme Activity", "setting": "phosphonate 0.6 wt-%, use solution at 120º F., time 0 min", "value": 100.00, "unit": "%"}, {"measurement": "Relative Lipase Enzyme Activity", "setting": "phosphonate 0.6 wt-%, use solution at 120º F., time 5 min", "value": 95.36, "unit": "%"}, {"measurement": "Relative Lipase Enzyme Activity", "setting": "phosphonate 0.6 wt-%, use solution at 120º F., time 10 min", "value": 100.58, "unit": "%"}, {"measurement": "Relative Lipase Enzyme Activity", "setting": "phosphonate 0.6 wt-%, use solution at 120º F., time 20 min", "value": 94.94, "unit": "%"}, {"measurement": "Relative Lipase Enzyme Activity", "setting": "phosphonate 0.6 wt-%, use solution at 120º F., time 40 min", "value": 93.85, "unit": "%"}, {"measurement": "Relative Lipase Enzyme Activity", "setting": "phosphonate 0.6 wt-%, use solution at 120º F., time 60 min", "value": 86.18, "unit": "%"}, {"measurement": "Relative Lipase Enzyme Activity", "setting": "phosphonate 0.6 wt-%, use solution at 120º F., time 90 min", "value": 76.99, "unit": "%"}, {"measurement": "Relative Lipase Enzyme Activity", "setting": "phosphonate 0.6 wt-%, use solution at 120º F., time 120 min", "value": 71.87, "unit": "%"}, {"measurement": "Relative Lipase Enzyme Activity", "setting": "phosphonate 0.6 wt-%, use solution at 120º F., time 150 min", "value": 72.77, "unit": "%"}, {"measurement": "Relative Lipase Enzyme Activity", "setting": "phosphonate 0.6 wt-%, use solution at 120º F., time 180 min", "value": 64.17, "unit": "%"}, {"measurement": "Relative Lipase Enzyme Activity", "setting": "phosphonate 0.6 wt-%, use solution at 120º F., time 210 min", "value": 63.68, "unit": "%"}, {"measurement": "Relative Lipase Enzyme Activity", "setting": "phosphonate 0.6 wt-%, use solution at 120º F., time 240 min", "value": 56.85, "unit": "%"}, {"measurement": "Relative Lipase Enzyme Activity", "setting": "phosphonate at 0.1% elemental phosphorus, at 120º F. or at room temperature (as titled), time 0 min", "value": 100.00, "unit": "%"}, {"measurement": "Relative Lipase Enzyme Activity", "setting": "phosphonate at 0.1% elemental phosphorus, at 120º F. or at room temperature (as titled), time 5 min", "value": 88.13, "unit": "%"}, {"measurement": "Relative Lipase Enzyme Activity", "setting": "phosphonate at 0.1% elemental phosphorus, at 120º F. or at room temperature (as titled), time 10 min", "value": 80.42, "unit": "%"}, {"measurement": "Relative Lipase Enzyme Activity", "setting": "phosphonate at 0.1% elemental phosphorus, at 120º F. or at room temperature (as titled), time 20 min", "value": 74.76, "unit": "%"}, {"measurement": "Relative Lipase Enzyme Activity", "setting": "phosphonate at 0.1% elemental phosphorus, at 120º F. or at room temperature (as titled), time 40 min", "value": 49.43, "unit": "%"}, {"measurement": "Relative Lipase Enzyme Activity", "setting": "phosphonate at 0.1% elemental phosphorus, at 120º F. or at room temperature (as titled), time 60 min", "value": 46.05, "unit": "%"}, {"measurement": "Relative Lipase Enzyme Activity", "setting": "phosphonate at 0.1% elemental phosphorus, at 120º F. or at room temperature (as titled), time 90 min", "value": 39.53, "unit": "%"}, {"measurement": "Relative Lipase Enzyme Activity", "setting": "phosphonate at 0.1% elemental phosphorus, at 120º F. or at room temperature (as titled), time 120 min", "value": 34.69, "unit": "%"}, {"measurement": "Relative Lipase Enzyme Activity", "setting": "phosphonate at 0.1% elemental phosphorus, at 120º F. or at room temperature (as titled), time 150 min", "value": 28.57, "unit": "%"}, {"measurement": "Relative Lipase Enzyme Activity", "setting": "phosphonate at 0.1% elemental phosphorus, at 120º F. or at room temperature (as titled), time 180 min", "value": 25.49, "unit": "%"}, {"measurement": "Relative Lipase Enzyme Activity", "setting": "phosphonate at 0.1% elemental phosphorus, at 120º F. or at room temperature (as titled), time 210 min", "value": 24.18, "unit": "%"}, {"measurement": "Relative Lipase Enzyme Activity", "setting": "phosphonate at 0.1% elemental phosphorus, at 120º F. or at room temperature (as titled), time 240 min", "value": 22.78, "unit": "%"}]}]}
